Experimental data: DBAASP
≈ marks a conversion by molar mass, not a printed value.

How the values were obtained:
Test in all cases: ≥ marks a high value that may be exact or a test limit, other limits are often not marked, values filed in µg/mL are converted to µM
[1] = system: Escherichia coli ATCC 25922
[2] = system: Staphylococcus aureus ATCC 29213
[3] = system: Staphylococcus epidermidis ATCC 12228
[4] = system: Pseudomonas aeruginosa ATCC 27853
Pseudomonas aeruginosa = system: Pseudomonas aeruginosa

Compound	MIC [1] [µM]	MIC [2] [µM]	MIC [3] [µM]	MIC [4] [µM]	MIC (Pseudomonas aeruginosa) [µM]
CC(=O)N[C@@H](CCCCN)C(=O)N[C@@H](CC(C)C)C(=O)N[C@@H](CC(C)C)C(=O)N[C@@H](CCCCN)C(=O)N[C@@H](CC(C)C)C(=O)N[C@@H](CC(C)C)C(=O)N[C@@H](CCCCN)C(=O)N[C@@H](CCCCN)C(=O)N[C@@H](CC(C)C)C(=O)N[C@@H](CC(C)C)C(=O)N[C@@H](CCCCN)C(=O)N[C@@H](CC(C)C)C(=O)N1CCC[C@H]1C(=O)N[C@@H](CCCCN)C(N)=O [KLLKLLKKLLKLPK]	14.1 (≈ 24.3 µg/mL)	10 (≈ 17.2 µg/mL)			
CC[C@H](C)[C@H](NC(=O)CN)C(=O)N[C@@H](CCCCN)C(=O)N[C@@H](CCCCN)C(=O)N[C@@H](Cc1c[nH]c2ccccc12)C(=O)N[C@@H](CC(C)C)C(=O)N[C@@H](Cc1cnc[nH]1)C(=O)N[C@@H](CO)C(=O)N1CCC[C@H]1C(=O)N[C@@H](CCCCN)C(=O)N[C@@H](CCCCN)C(=O)N[C@@H](Cc1ccccc1)C(=O)NCC(=O)N[C@@H](CCCCN)C(=O)N[C@@H](CCCCN)C(=O)N[C@@H](Cc1ccccc1)C(=O)N1CCC[C@H]1C(=O)N[C@@H](CCCCN)C(=O)N[C@@H](CCCCN)C(=O)N[C@H](C(=O)N[C@@H](CCSC)C(=O)N[C@@H](CC(N)=O)C(=O)N[C@@H](CO)C(N)=O)[C@@H](C)CC [GIKKWLHSPKKFGKKFPKKIMNS]	> 80		10 (≈ 27.3 µg/mL)		
CC[C@H](C)[C@H](NC(=O)CN)C(=O)N[C@@H](CCCCN)C(=O)N[C@@H](CCCCN)C(=O)N[C@@H](Cc1c[nH]c2ccccc12)C(=O)N1CCC[C@H]1C(=O)N[C@@H](Cc1cnc[nH]1)C(=O)N[C@@H](CCCCN)C(=O)N1CCC[C@H]1C(=O)N[C@@H](CCCCN)C(=O)N[C@@H](CCCCN)C(=O)N[C@@H](Cc1ccccc1)C(=O)NCC(=O)N[C@@H](CCCCN)C(=O)N[C@@H](CCCCN)C(=O)N[C@@H](Cc1ccccc1)C(=O)N[C@H](C(=O)N[C@@H](CCCCN)C(=O)N[C@@H](CCCCN)C(=O)N[C@H](C(=O)N[C@@H](CCCCN)C(=O)N[C@@H](CC(N)=O)C(=O)N[C@@H](CO)C(N)=O)[C@@H](C)CC)C(C)C [GIKKWPHKPKKFGKKFVKKIKNS]	40 (≈ 110 µg/mL)		10 (≈ 27.5 µg/mL)		
NC(=O)[C@H](Cc1ccccc1)NC(=O)[C@H](Cc1ccccc1)NC(=O)[C@H](Cc1ccccc1)NC(=O)[C@H](Cc1ccccc1)NC(=O)[C@@H]1CCCN1C(=O)[C@H](CCCN=C(N)N)NC(=O)[C@@H]1CCCN1C(=O)[C@H](CCCN=C(N)N)NC(=O)[C@@H]1CCCN1C(=O)[C@H](CCCN=C(N)N)NC(=O)[C@@H]1CCCN1C(=O)[C@H](CCCN=C(N)N)NC(=O)[C@@H](N)CCCN=C(N)N [RRPRPRPRPFFFF]	80 (≈ 142 µg/mL)	20 (≈ 35.5 µg/mL)		40 (≈ 71 µg/mL)	
CC(C)C[C@H](NC(=O)[C@H](CC(C)C)NC(=O)[C@H](CCCCN)NC(=O)[C@H](CCCCN)NC(=O)[C@H](CC(C)C)NC(=O)[C@H](CC(C)C)NC(=O)[C@H](CCCCN)NC(=O)[C@H](CC(C)C)NC(=O)[C@H](CC(C)C)NC(=O)[C@H](CCCCN)NC(=O)[C@H](CCCCN)NC(=O)[C@@H](N)CC(C)C)C(=O)N[C@@H](CCCCN)C(=O)N[C@@H](C)C(=O)N[C@@H](C)C(=O)NCC(=O)O [LKKLLKLLKKLLKAAG]	10 (≈ 17.8 µg/mL)	10 (≈ 17.8 µg/mL)			
CC[C@H](C)[C@H](NC(=O)[C@H](C)NC(=O)[C@H](CCCCN)NC(=O)[C@@H](N)CCC(N)=O)C(=O)N[C@@H](CCCN=C(N)N)C(=O)N[C@H](C(=O)N[C@@H](CCCN=C(N)N)C(=O)N[C@@H](CC(C)C)C(=O)N[C@@H](CO)C(=O)N[C@@H](C)C(=O)O)C(C)C [QKAIRVRLSA]	7.01 (≈ 8 µg/mL)	> 56.1		7.01 (≈ 8 µg/mL)	
CC[C@H](C)[C@H](NC(=O)[C@@H](NC(=O)[C@H](C)NC(=O)[C@H](CCCN=C(N)N)NC(=O)[C@H](CC(N)=O)NC(=O)[C@H](Cc1ccccc1)NC(=O)[C@H](CO)NC(=O)[C@@H](N)C(C)C)C(C)C)C(=O)N[C@@H](Cc1cnc[nH]1)C(=O)N[C@@H](CO)C(=O)N[C@@H](CC(C)C)C(=O)N[C@@H](CC(C)C)C(=O)NCC(N)=O [VSFNRAVIHSLLG]	> 496	> 496			
CC[C@H](C)[C@H](NC(=O)[C@H](CCCCN)NC(=O)[C@H](CCCCN)NC(=O)[C@@H](N)CCC(N)=O)C(=O)N[C@@H](CCCN=C(N)N)C(=O)N[C@@H](C)C(=O)N[C@@H](CCCN=C(N)N)C(=O)N[C@@H](CC(C)C)C(=O)N[C@@H](CO)C(=O)N[C@@H](C)C(=O)O [QKKIRARLSA]	> 54.7	> 54.7		> 54.7	

The next lines start with the values.

MIC [1] [µM]	MIC [2] [µM]	MIC [3] [µM]	MIC [4] [µM]	MIC (Pseudomonas aeruginosa) [µM]	Compound
10 (≈ 27.1 µg/mL)		10 (≈ 27.1 µg/mL)			CC[C@H](C)[C@H](NC(=O)CN)C(=O)N[C@@H](CCCCN)C(=O)N[C@@H](CCCCN)C(=O)N[C@@H](Cc1c[nH]c2ccccc12)C(=O)N1CCC[C@H]1C(=O)N[C@@H](Cc1cnc[nH]1)C(=O)N[C@@H](CO)C(=O)N1CCC[C@H]1C(=O)N[C@@H](CCCCN)C(=O)N[C@@H](CCCCN)C(=O)N[C@@H](Cc1ccccc1)C(=O)NCC(=O)N[C@@H](CCCCN)C(=O)N[C@@H](CCCCN)C(=O)N[C@@H](Cc1ccccc1)C(=O)N[C@H](C(=O)N[C@@H](CCCCN)C(=O)N[C@@H](CCCCN)C(=O)N[C@H](C(=O)N[C@@H](CCSC)C(=O)N[C@@H](CC(N)=O)C(=O)N[C@@H](CO)C(N)=O)[C@@H](C)CC)C(C)C [GIKKWPHSPKKFGKKFVKKIMNS]
				5.13 (≈ 12.5 µg/mL)	CC[C@H](C)[C@H](NC(=O)[C@H](Cc1ccccc1)NC(=O)[C@H](CO)NC(=O)[C@H](CC(N)=O)NC(=O)[C@H](Cc1c[nH]c2ccccc12)NC(=O)[C@@H](N)CCCCN)C(=O)N[C@@H](CCCCN)C(=O)N[C@@H](CCCCN)C(=O)N[C@@H](CC(C)C)C(=O)N[C@H](C(=O)N[C@@H](CO)C(=O)N[C@@H](CCCCN)C(=O)N[C@@H](Cc1ccccc1)C(=O)N[C@@H](CC(C)C)C(=O)N[C@@H](Cc1cnc[nH]1)C(=O)N[C@@H](CO)C(=O)N[C@@H](C)C(=O)N[C@@H](CCCCN)C(=O)N[C@@H](CCCCN)C(=O)N[C@@H](Cc1ccccc1)C(N)=O)[C@@H](C)O [KWNSFIKKLTSKFLHSAKKF]
128 (≈ 256 µg/mL)	63.9 (≈ 128 µg/mL)		63.9 (≈ 128 µg/mL)		CC[C@H](C)[C@H](NC(=O)[C@H](CCSC)NC(=O)[C@H](C)NC(=O)[C@@H]1CCCN1C(=O)[C@@H](NC(=O)[C@@H](NC(=O)[C@H](CCCCN)NC(=O)[C@@H](NC(=O)[C@H](CC(C)C)NC(=O)CNC(=O)CNC(=O)[C@H](CC(C)C)NC(=O)[C@@H](N)Cc1ccccc1)[C@@H](C)CC)[C@@H](C)CC)C(C)C)C(=O)N[C@@H](CS)C(=O)N[C@@H](C)C(=O)N[C@H](C(=O)N[C@H](C(=O)N[C@@H](CCCCN)C(=O)N[C@@H](CCCCN)C(=O)O)[C@@H](C)O)C(C)C [FLGGLIKIVPAMICAVTKK]
47 (≈ 62.5 µg/mL)	94 (≈ 125 µg/mL)				CC(C)[C@H](NC(=O)[C@H](Cc1c[nH]c2ccccc12)NC(=O)[C@H](Cc1c[nH]c2ccccc12)NC(=O)[C@@H](N)CCCN=C(N)N)C(=O)N[C@@H](C)C(=O)N[C@@H](Cc1c[nH]c2ccccc12)C(=O)N[C@@H](CCCN=C(N)N)C(=O)N[C@@H](CC(N)=O)C(=O)N[C@@H](CCCN=C(N)N)C(=O)O [RWWVAWRNR]
5 (≈ 8.74 µg/mL)	> 40				CC[C@H](C)[C@H](NC(=O)[C@H](CCCN=C(N)N)NC(=O)[C@H](CCC(N)=O)NC(=O)[C@H](CCC(N)=O)NC(=O)[C@@H](NC(=O)[C@H](CCCN=C(N)N)NC(=O)[C@H](CCCCN)NC(=O)[C@@H](N)Cc1ccccc1)[C@@H](C)CC)C(=O)N[C@@H](CCCCN)C(=O)N[C@@H](CC(=O)O)C(=O)N[C@@H](Cc1ccccc1)C(=O)N[C@@H](CC(C)C)C(=O)N[C@@H](CCCN=C(N)N)C(=O)O [FKRIQQRIKDFLR]
